Results from PMC3419191, “Identification of Novel Piperazinylquinoxaline Derivatives as Potent Phosphoinositide 3-Kinase (PI3K) Inhibitors” (PLoS ONE, 2012).

Columns and labels:
[1] = test system: HCT116; test: MTT assay, antiproliferative activity against HCT116 cells; assay type: cell-based; conditions: Homo sapiens, HCT-116, 72 h, mean of at least two determinations
Excerpt: (§1) All synthesized target compounds were firstly tested for their antiproliferative activity against five human cancer cell lines, PC3, A549, HCT116, HL60, and KB, using MTT assay.
(§2) Human prostate cancer PC3 cells, lung adenocarcinoma epithelial A549 cells, colon cancer HCT116 cells, promyelocytic leukemia HL60 cells and nasopharyngeal carcinoma KB cells were obtained from the cell bank of the Institute of Biochemistry and Cell Biology, Chinese Academy of Sciences (Shanghai, China). The inhibitory activity of target compounds against tested cancer cell lines was measured using the MTT assay. PC3, A549, HCT116, HL60, and KB cancer cell lines were cultured in RPMI-1640 medium (Invitrogen, Carlsbad, CA, USA) with heat-inactivated 10% fetal bovine serum, penicillin (100 units/mL) and streptomycin (100 µg/mL) and incubated in an atmosphere with 20% oxygen and 5% carbon dioxide at 37°C. All tested compounds were dissolved in DMSO at concentrations of 10.0 mg/mL and diluted to appropriate concentrations. Cells were plated in 96-well plates for 24 h and subsequently treated with different concentrations of all tested compounds for 72 h. Viable cells were determined using 3-(4,5-dimethylthiazol-2-yl)-2,5-diphenyltetrazolium bromide assay kit (MTT, Sigma) according to operation instructions provided by the manufacturer. The concentration of drug causing 50% inhibition in absorbance compared with control cells (IC50) was calculated using the software of dose-effect analysis with microcomputers.

[2] = test system: HL60; test: MTT assay, antiproliferative activity against HL60 cells; assay type: cell-based; conditions: Homo sapiens, HL-60, 72 h, mean of at least two determinations
Excerpt: as §1, §2

[3] = test system: A549; test: MTT assay, antiproliferative activity against A549 cells; assay type: cell-based; conditions: Homo sapiens, 72 h, mean of at least two determinations
Excerpt: as §1, §2

[4] = test system: PC3; test: MTT assay, antiproliferative activity against PC3 cells; assay type: cell-based; conditions: Homo sapiens, PC-3, 72 h, mean of at least two determinations
Excerpt: as §1, §2

[5] = test system: KB; test: MTT assay, antiproliferative activity against KB cells; assay type: cell-based; conditions: Homo sapiens, 72 h, mean of at least two determinations
Excerpt: as §1, §2

SMILES	IC50 [1] [µM]	IC50 [2] [µM]	IC50 [3] [µM]	IC50 [4] [µM]	melting point [°C]	IC50 [5] [µM]
COc1ccc(S(=O)(=O)c2nc3ccccc3nc2N2CCN(C(=O)c3ccc(Cl)cc3)CC2)cc1 [Compound 36, 2-(4-(4-Chlorobenzoyl)piperazin-1-yl)-3-(4-methoxyphenylsulfonyl)quinoxaline]	9.62	5.58	> 50	2.43	179	6.03
Cc1ccc(S(=O)(=O)c2nc3ccccc3nc2N2CCN(C(=O)c3ccccc3)CC2)cc1 [Compound 30, 2-(4-Benzoylpiperazin-1-yl)-3-(4-methylphenylsulfonyl)quinoxaline]	6.9	17.3	8.03	5.81	182 to 185	3.67
COc1ccc(S(=O)(=O)c2nc3ccccc3nc2N2CCN(S(=O)(=O)c3ccc(C)cc3)CC2)cc1 [Compound 46, 2-(4-(4-Methylphenylsulfonyl)piperazin-1-yl)-3-(4-methoxyphenylsulfonyl)-quinoxaline]	14.2	15	> 50	6.2	172 to 175	2.35
COc1ccc(S(=O)(=O)c2nc3ccccc3nc2N2CCN(C(=O)c3ccccc3)CC2)cc1 [Compound 31, 2-(4-Benzoylpiperazin-1-yl)-3-(4-methoxyphenylsulfonyl)quinoxaline]	17.2	6.93	7.43	3.63	166 to 169	5.65
O=C(c1ccccc1)N1CCN(c2nc3ccccc3nc2S(=O)(=O)c2ccc(Br)cc2)CC1 [Compound 32, 2-(4-Benzoylpiperazin-1-yl)-3-(4-bromophenylsulfonyl)quinoxaline]	10.1	17.4	3.96	1.4	204 to 205	3.37
Cc1ccc(S(=O)(=O)N2CCN(c3nc4ccccc4nc3S(=O)(=O)c3ccc(Br)cc3)CC2)cc1 [Compound 47, 2-(4-(4-Methylphenylsulfonyl)piperazin-1-yl)-3-(4-bromophenylsulfonyl)-quinoxaline]	5.07	10.3	19.5	4.89	214 to 216	2.73
NC(=O)C1CCN(c2nc3ccccc3nc2S(=O)(=O)c2ccc(F)cc2)CC1 [Compound 8, 2-(4-Carbamoylpiperidin-1-yl)-3-(4-fluorophenylsulfonyl)quinoxaline]	7.13	4.15	10.2	4.36	198 to 202	6.45
CC(=O)N1CCN(c2nc3ccccc3nc2S(=O)(=O)c2ccc(F)cc2)CC1 [Compound 13, 2-(4-Acetylpiperazin-1-yl)-3-(4-fluorophenylsulfonyl)quinoxaline]	4.34	1.78	7.12	3.17	108 to 112	6.15
Cc1ccc(S(=O)(=O)c2nc3ccccc3nc2N2CCN(C(=O)c3ccc(Cl)cc3)CC2)cc1 [Compound 35, 2-(4-(4-Chlorobenzoyl)piperazin-1-yl)-3-(4-methylphenylsulfonyl)quinoxaline]	9.84	6.09	21.6	3.61	188 to 190	2.84
O=c1cc(N2CCOCC2)oc2c(-c3ccccc3)cccc12 [LY294002, 2-(4-morpholinyl)-8-phenyl-4H-1-benzopyran-4-one, reference compound]	56	9.94	89.7	61.4	–	44.8
O=C(c1ccccc1)N1CCN(c2nc3ccccc3nc2S(=O)(=O)c2ccc(F)cc2)CC1 [Compound 33, 2-(4-Benzoylpiperazin-1-yl)-3-(4-fluorophenylsulfonyl)quinoxaline]	8.88	6.95	1.16	1.77	200 to 202	1.22
CN1CCN(c2nc3ccccc3nc2S(=O)(=O)c2ccc(F)cc2)CC1 [Compound 18, 2-(4-Methylpiperazin-1-yl)-3-(4-fluorophenylsulfonyl)quinoxaline]	8.21	2.75	7.95	3.09	147 to 148	21.6

Stronger by IC50 [1], values ahead:

IC50 [1] [µM]	IC50 [2] [µM]	IC50 [3] [µM]	IC50 [4] [µM]	melting point [°C]	IC50 [5] [µM]	SMILES
3.76	9.48	48.2	3.39	172 to 174	5.17	Cc1ccc(S(=O)(=O)N2CCN(c3nc4ccccc4nc3S(=O)(=O)c3ccc(F)cc3)CC2)cc1 [Compound 48, 2-(4-(4-Methylphenylsulfonyl)piperazin-1-yl)-3-(4-fluorophenylsulfonyl)-quinoxaline]
3.66	0.48	18.6	2.18	160 to 162	10.3	COc1ccc(S(=O)(=O)c2nc3ccccc3nc2N2CCN(C(C)=O)CC2)cc1 [Compound 11, 2-(4-Acetylpiperazin-1-yl)-3-(4-methoxyphenylsulfonyl)quinoxaline]
2.6	3.28	2.42	2.27	148 to 150	3.89	CC(=O)N1CCN(c2nc3ccccc3nc2S(=O)(=O)c2ccc(C)cc2)CC1 [Compound 10, 2-(4-Acetylpiperazin-1-yl)-3-(4-methylphenylsulfonyl)quinoxaline]
2.59	–	2.1	9.3	–	–	COc1ccc(S(=O)(=O)c2nc3ccccc3nc2N2CCN(CCCN3CCOCC3)CC2)cc1 [Compound 51, 2-(4-(3-Morpholinopropyl)piperazin-1-yl)-3-(4-methoxyphenylsulfonyl)-quinoxaline]
2.43	1.39	2.79	2.05	–	4.58	O=S(=O)(c1ccc(F)cc1)c1nc2ccccc2nc1N1CCNCC1 [Compound 23, 2-(Piperazin-1-yl)-3-(4-fluorophenylsulfonyl)quinoxaline]
2.37	0.54	8.57	1.55	121 to 124	2.53	COc1ccc(S(=O)(=O)c2nc3ccccc3nc2N2CCN(C)CC2)cc1 [Compound 16, 2-(4-Methylpiperazin-1-yl)-3-(4-methoxyphenylsulfonyl)quinoxaline]
2.2	1.95	3.45	2.34	119 to 123	2.03	CC1CN(c2nc3ccccc3nc2S(=O)(=O)c2ccc(F)cc2)CCN1 (stereo not drawn) [Compound 28, 2-(3-Methylpiperazin-1-yl)-3-(4-fluorophenylsulfonyl)quinoxaline]
1.61	0.15	12.1	1.17	209 to 210	4.22	NC(=O)C1CCN(c2nc3ccccc3nc2S(=O)(=O)c2ccc(Br)cc2)CC1 [Compound 7, 2-(4-Carbamoylpiperidin-1-yl)-3-(4-bromophenylsulfonyl)quinoxaline]
1.2	0.14	27.4	2.28	200 to 203	11.8	Cc1ccc(S(=O)(=O)c2nc3ccccc3nc2N2CCC(C(N)=O)CC2)cc1 [Compound 5, 2-(4-Carbamoylpiperidin-1-yl)-3-(4-methylphenylfsulfonyl)quinoxaline]
0.93	–	1.12	4.8	–	–	O=S(=O)(c1ccc(F)cc1)c1nc2ccccc2nc1N1CCN(CCCN2CCOCC2)CC1 [Compound 53, 2-(4-(3-Morpholinopropyl)piperazin-1-yl)-3-(4-fluorophenylsulfonyl)quinoxaline]
0.63	0.16	1.37	0.68	142 to 144	11.5	COc1ccc(S(=O)(=O)c2nc3ccccc3nc2N2CCNCC2)cc1 [Compound 21, 2-(Piperazin-1-yl)-3-(4-methoxyphenylsulfonyl)quinoxaline]
0.47	0.12	14.4	1.32	–	7.26	Cc1ccc(S(=O)(=O)c2nc3ccccc3nc2N2CCNCC2)cc1 [Compound 20, 2-(Piperazin-1-yl)-3-(4-methylphenylsulfonyl)quinoxaline]
0.31	–	0.51	3.83	–	–	Cc1ccc(S(=O)(=O)c2nc3ccccc3nc2N2CCN(CCCN3CCOCC3)CC2)cc1 [Compound 50, 2-(4-(3-Morpholinopropyl)piperazin-1-yl)-3-(4-methylphenylsulfonyl)quinoxaline]
